Experimental data as given in the supplement of paper PMC10307832.

Compound: CC(C)CCN1c2nc(Nc3cc(F)c(O)c(F)c3)ncc2N(C)C(=O)C1C [BI-D1870] + CS(=O)(=O)N1CCN(Cc2cc3nc(-c4cccc5[nH]ncc45)nc(N4CCOCC4)c3s2)CC1 [Pictilisib] (partner 1 µM)
Experiment: relative viability (nuclei count vs DMSO), 5 days (fraction); higher = more cells survive
Details: first compound 4 µM
Outline: (§1)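 Nuclei were stained with Hoechst during a one-step fixation (final 0.05% Triton X-100, 1% formaldehyde, 1 ug/ml Hoechst) carried out 5 days after dosing, then counted on 4× images. The cells, lung cancer lines in 1536-well plates, had been dosed by pin tool the day after seeding with one drug alone or a fixed anchor-drug dose plus five library-drug doses (not always all listed) in √10 steps. Relative viability is the nuclei count in treated wells divided by that in vehicle wells, and each value is the median of duplicate plates.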

Cell Line	relative viability
NCI-H1975	0.208
RERF-LC-KJ	0.459
ABC-1	0.566
NCI-H358	0.322
NCI-H650	0.651
PC-3 [JPC-3]	0.645

Compound: O=c1ncccn1[C@@H]1O[C@H](CO)[C@@H](O)[C@H]1O [Zebularine] + CS(=O)(=O)CCNCc1ccc(-c2ccc3ncnc(Nc4ccc(OCc5cccc(F)c5)c(Cl)c4)c3c2)o1 [Lapatinib] (partner 2 µM)
Experiment: as above
Details: first compound 1 µM
Outline: as §1

Cell Line	relative viability
201T	1.05
NCI-H1915	1.12
HCC-827	0.209
LXF-289	0.986
NCI-H23	1.15
NCI-H1299	0.965
NCI-H647	1.35
CAL-12T	0.757
NCI-H1651	0.917
EPLC-272H	0.935
NCI-H2228	1.19
NCI-H1792	0.978
NCI-H1355	1.31
NCI-H3122	1.12
NCI-H1437	0.925
NCI-H1755	1.17
NCI-H2023	1.03
HCC-15	0.941
NCI-H1793	0.826
PC-14	0.448
EKVX	0.218
LC-2-ad	1.05
NCI-H1563	1
NCI-H1944	0.975
NCI-H1975	0.982
RERF-LC-KJ	0.901
ABC-1	1.05
NCI-H358	0.48
NCI-H650	1.32
PC-3 [JPC-3]	0.479

Same assay, conditions: first compound 3.162 µM

Cell Line	relative viability
201T	1.09
NCI-H1915	0.961
HCC-827	0.175
LXF-289	0.92
NCI-H23	1.12
NCI-H1299	0.937
NCI-H647	1.03
CAL-12T	0.658
NCI-H1651	1.07
NCI-H2228	1.04
NCI-H1792	0.879
NCI-H1355	0.851
NCI-H3122	1.05
NCI-H1437	0.934
NCI-H1755	0.991
NCI-H2023	0.686
HCC-15	0.822
NCI-H1793	0.882
PC-14	0.296
EKVX	0.182
LC-2-ad	0.886
NCI-H1563	0.782
NCI-H1944	0.864
NCI-H1975	0.872
RERF-LC-KJ	0.946
ABC-1	1.08
NCI-H358	0.401
NCI-H650	0.805
PC-3 [JPC-3]	0.471

Same assay, conditions: first compound 10 µM

Cell Line	relative viability
201T	0.902
NCI-H1915	0.717
HCC-827	0.192
LXF-289	0.818
NCI-H1299	0.619
NCI-H647	0.227
NCI-H2228	0.66
NCI-H1792	0.416
NCI-H1355	0.854
NCI-H3122	0.911
NCI-H1755	0.802
NCI-H2023	0.786
HCC-15	0.74
NCI-H1793	0.339
PC-14	0.201
LC-2-ad	0.722
NCI-H1563	0.907
NCI-H1944	0.613
NCI-H1975	0.478
ABC-1	0.655
NCI-H358	0.44
NCI-H650	0.496
PC-3 [JPC-3]	0.412

Same assay, conditions: first compound 31.62 µM

Cell Line	relative viability
201T	1.06
NCI-H1915	1.13
HCC-827	0.188
LXF-289	0.783
NCI-H23	1.21
NCI-H1299	0.968
NCI-H647	0.212
CAL-12T	0.701
NCI-H1651	0.94
EPLC-272H	0.992
NCI-H2228	0.638
NCI-H1792	0.428
NCI-H1355	0.681
NCI-H3122	1.04
NCI-H1437	0.787
NCI-H1755	1.11
NCI-H2023	0.717
HCC-15	0.825
NCI-H1793	0.648
PC-14	0.163
EKVX	0.211
LC-2-ad	0.584
NCI-H1563	1.13
NCI-H1944	0.932
NCI-H1975	0.392
RERF-LC-KJ	0.92
ABC-1	0.642
NCI-H358	0.467
NCI-H650	0.565
PC-3 [JPC-3]	0.482

Same assay, conditions: first compound 100 µM

Cell Line	relative viability
201T	1.11
NCI-H1915	0.979
HCC-827	0.191
LXF-289	0.271
NCI-H23	0.756
NCI-H1299	0.493
NCI-H647	0.14
CAL-12T	0.633
NCI-H1651	0.515
EPLC-272H	0.598
NCI-H2228	0.281
NCI-H1792	0.284
NCI-H1355	0.357
NCI-H3122	1.05
NCI-H1437	0.333
NCI-H1755	0.497
NCI-H2023	0.292
HCC-15	0.401
NCI-H1793	0.304
PC-14	0.126
EKVX	0.184
LC-2-ad	0.168
NCI-H1563	0.946
NCI-H1944	0.757
NCI-H1975	0.267
RERF-LC-KJ	0.863
ABC-1	0.605
NCI-H358	0.303
NCI-H650	0.276
PC-3 [JPC-3]	0.411
